Data as given in BindingDB's records for doi:10.1021/acsmedchemlett.6b00489 (Peking University, 2017).
pEC50: −log10 of the molar value.

Test: Inhibition of SDHB in human U2OS cells over-expressing Bim assessed as inhibition of apoptosis preincubated for 1 hr followed by doxycyclin addition to induce Bim protein expression measured after 24 hrs by Cell Titer-Glo assay

With `Cc1ccccc1-c1cc(C(F)(F)F)nc(S(C)(=O)=O)n1` as the compound, how does the pEC50 read?
Its pEC50 is 5.18.

With `CS(=O)(=O)c1nc(-c2ccc(=O)n(Cc3cccc(Cl)c3)c2)cc(C(F)(F)F)n1` as the compound, how does the pEC50 read?
Its pEC50 is 6.59.

With `CS(=O)(=O)c1nc(-c2cccs2)cc(C(F)(F)F)n1` [MLS000044645] as the compound, how does the pEC50 read?
Its pEC50 is 6.13.

With `Cc1cccc(-c2cc(C(F)(F)F)nc(S(C)(=O)=O)n2)c1` as the compound, how does the pEC50 read?
Its pEC50 is 5.46.

With `Cc1ccc(-c2cc(C(F)(F)F)nc(S(C)(=O)=O)n2)cc1` as the compound, how does the pEC50 read?
The pEC50 was 5.20.

With `COCCS(=O)(=O)c1nc(-c2ccc(=O)n(Cc3ccc(OC)c(OC)c3)c2)cc(C(F)(F)F)n1` as the compound, how does the pEC50 read?
Its pEC50 is 6.67.

With `CCOc1cccc(Cn2cc(-c3cc(C(F)(F)F)nc(S(C)(=O)=O)n3)ccc2=O)c1` as the compound, how does the pEC50 read?
Its pEC50 is 6.96.

With `CS(=O)(=O)c1nc(-c2ccccc2)cc(C(F)(F)F)n1` [MLS000044644] as the compound, how does the pEC50 read?
The pEC50 was 5.66.

With `CS(=O)(=O)c1nc(-c2ccc(=O)n(Cc3ccc(C#N)cc3)c2)cc(C(F)(F)F)n1` as the compound, how does the pEC50 read?
The pEC50 was 5.46.

With `CS(=O)(=O)c1nc(-c2ccc(=O)n(Cc3cccc(C#N)c3)c2)cc(C(F)(F)F)n1` as the compound, how does the pEC50 read?
The pEC50 was 5.39.

With `COc1ccc(Cn2cc(-c3cc(C(F)(F)F)nc(S(=O)(=O)CCCC(=O)N(C)C)n3)ccc2=O)cc1OC` as the compound, how does the pEC50 read?
Its pEC50 is 6.79.

With `Cc1cc(-c2cccs2)nc(S(C)(=O)=O)n1` as the compound, how does the pEC50 read?
Its pEC50 is < 4.70.

With `CS(=O)(=O)c1nc(-c2ccc(=O)n(Cc3ccc(Cl)cc3)c2)cc(C(F)(F)F)n1` as the compound, how does the pEC50 read?
The pEC50 was 7.18.

With `CS(=O)(=O)c1nc(-c2cccs2)cc(C2CCC(=O)N2)n1` (centres undefined) as the compound, how does the pEC50 read?
The pEC50 was < 4.70.

With `COc1cccc(Cn2cc(-c3cc(C(F)(F)F)nc(S(C)(=O)=O)n3)ccc2=O)c1` as the compound, how does the pEC50 read?
Its pEC50 is 7.24.

With `CCOC(=O)CCS(=O)(=O)c1nc(-c2cccs2)cc(C(F)(F)F)n1` as the compound, how does the pEC50 read?
Its pEC50 is 5.95.

With `C#Cc1ccc(Cn2cc(-c3cc(C(F)(F)F)nc(S(C)(=O)=O)n3)ccc2=O)cc1` as the compound, how does the pEC50 read?
Its pEC50 is 6.09.

With `CS(=O)(=O)c1nc(-c2ccc(=O)n(Cc3ccccc3Cl)c2)cc(C(F)(F)F)n1` as the compound, how does the pEC50 read?
Its pEC50 is 5.94.

With `COC(=O)c1ccc(-c2cc(C(F)(F)F)nc(S(C)(=O)=O)n2)cc1` as the compound, how does the pEC50 read?
Its pEC50 is < 4.70.

With `CS(=O)(=O)c1nc(-c2ccc(=O)n(Cc3cccc(O)c3)c2)cc(C(F)(F)F)n1` as the compound, how does the pEC50 read?
Its pEC50 is 5.74.

With `CS(=O)(=O)c1nc(-c2ccc(=O)[nH]c2)cc(C(F)(F)F)n1` as the compound, how does the pEC50 read?
The pEC50 was < 4.70.

With `CS(=O)(=O)c1nc(-c2cccc(Oc3ccccc3)c2)cc(C(F)(F)F)n1` as the compound, how does the pEC50 read?
Its pEC50 is 5.06.

With `COc1ccc(Cn2cc(-c3cc(C(F)(F)F)nc(S(C)(=O)=O)n3)ccc2=O)cc1OC` as the compound, how does the pEC50 read?
Its pEC50 is 7.60.

With `COc1ccc(Cn2cc(-c3cc(C(F)(F)F)nc(S(=O)(=O)CCCC(=O)N4CCCCC4)n3)ccc2=O)cc1OC` as the compound, how does the pEC50 read?
Its pEC50 is 8.85.

With `CS(=O)(=O)c1nc(-c2cccs2)cc(-c2cccs2)n1` as the compound, how does the pEC50 read?
Its pEC50 is < 4.70.

With `O=S(=O)(CCc1ccccc1)c1nc(-c2cccs2)cc(C(F)(F)F)n1` as the compound, how does the pEC50 read?
Its pEC50 is 5.80.

With `O=S(=O)(Cc1ccc(-c2ccccc2)cc1)c1nc(-c2cccs2)cc(C(F)(F)F)n1` as the compound, how does the pEC50 read?
Its pEC50 is 5.38.

With `CS(=O)(=O)c1nc(N=[N+]=[N-])cc(-c2cccs2)n1` as the compound, how does the pEC50 read?
The pEC50 was < 4.70.

With `CCCCCCCS(=O)(=O)c1nc(-c2ccc(=O)n(Cc3ccc(OC)c(OC)c3)c2)cc(C(F)(F)F)n1` as the compound, how does the pEC50 read?
Its pEC50 is 6.60.

With `C#Cc1cccc(Cn2cc(-c3cc(C(F)(F)F)nc(S(C)(=O)=O)n3)ccc2=O)c1` as the compound, how does the pEC50 read?
The pEC50 was 5.35.

With `CS(=O)(=O)c1nc(-c2ccc(=O)n(Cc3ccccc3)c2)cc(C(F)(F)F)n1` as the compound, how does the pEC50 read?
Its pEC50 is 5.94.

With `COC(=O)c1ccccc1-c1cc(C(F)(F)F)nc(S(C)(=O)=O)n1` as the compound, how does the pEC50 read?
Its pEC50 is 5.15.

With `COc1ccc(Cn2cc(-c3cc(C(F)(F)F)nc(S(C)(=O)=O)n3)ccc2=O)cc1` as the compound, how does the pEC50 read?
Its pEC50 is 7.03.

With `COCCCS(=O)(=O)c1nc(-c2ccc(=O)n(Cc3ccc(OC)c(OC)c3)c2)cc(C(F)(F)F)n1` as the compound, how does the pEC50 read?
The pEC50 was 6.55.

With `COc1ccc(Cn2cc(-c3cc(C(F)(F)F)nc(S(=O)(=O)CCCC(N)=O)n3)ccc2=O)cc1OC` as the compound, how does the pEC50 read?
The pEC50 was < 4.70.

With `CN(C)C(=O)c1cccc(-c2cc(C(F)(F)F)nc(S(C)(=O)=O)n2)c1` as the compound, how does the pEC50 read?
The pEC50 was < 4.70.

With `COC(=O)c1cccc(-c2cc(C(F)(F)F)nc(S(C)(=O)=O)n2)c1` as the compound, how does the pEC50 read?
Its pEC50 is 5.45.

With `CCCCCS(=O)(=O)c1nc(-c2ccc(=O)n(Cc3ccc(OC)c(OC)c3)c2)cc(C(F)(F)F)n1` as the compound, how does the pEC50 read?
The pEC50 was 6.44.

With `Cc1ccc(O)c(NC(=O)CCCS(=O)(=O)c2nc(-c3cccs3)cc(C(F)(F)F)n2)c1` as the compound, how does the pEC50 read?
Its pEC50 is 5.40.

With `COc1ccc(Cn2cc(-c3cc(C(F)(F)F)nc(S(=O)(=O)CCCC(=O)NC45CC6CC(CC(C6)C4)C5)n3)ccc2=O)cc1OC` as the compound, how does the pEC50 read?
Its pEC50 is 9.38.

With `CCS(=O)(=O)c1nc(-c2cccs2)cc(C(F)(F)F)n1` as the compound, how does the pEC50 read?
Its pEC50 is 5.85.

With `CCCOc1cccc(Cn2cc(-c3cc(C(F)(F)F)nc(S(C)(=O)=O)n3)ccc2=O)c1` as the compound, how does the pEC50 read?
The pEC50 was 7.16.

With `COc1ccc(Cn2cc(-c3cc(C(F)(F)F)nc(S(=O)(=O)CCCC(=O)N4CCCC4)n3)ccc2=O)cc1OC` as the compound, how does the pEC50 read?
The pEC50 was 7.57.

Test: Inhibition of SDHB in human U2OS cells over-expressing tBid assessed as reduction in apoptosis preincubated for 1 hr followed by doxycyclin addition to induce tBid protein expression measured after 24 hrs by Cell Titer-Glo assay

With `COc1ccc(Cn2cc(-c3cc(C(F)(F)F)nc(S(=O)(=O)CCCC(=O)NC45CC6CC(CC(C6)C4)C5)n3)ccc2=O)cc1OC` as the compound, how does the pEC50 read?
The pEC50 was 9.64.
